Consider 19 compounds from patent EP0942911B1, “BENZOPYRANOPYRROLE AND BENZOPYRANOPYRIDINE ALPHA-1 ADRENERGIC COMPOUNDS” (Abbott Laboratories, priority 1996, dated 1998).

Structures can show the parent of a compound that is named as a salt.

In one experiment the target is T1, α-1A adrenoreceptor (Rattus norvegicus, UniProt P43140).
T1 sequence (P43140 1-466): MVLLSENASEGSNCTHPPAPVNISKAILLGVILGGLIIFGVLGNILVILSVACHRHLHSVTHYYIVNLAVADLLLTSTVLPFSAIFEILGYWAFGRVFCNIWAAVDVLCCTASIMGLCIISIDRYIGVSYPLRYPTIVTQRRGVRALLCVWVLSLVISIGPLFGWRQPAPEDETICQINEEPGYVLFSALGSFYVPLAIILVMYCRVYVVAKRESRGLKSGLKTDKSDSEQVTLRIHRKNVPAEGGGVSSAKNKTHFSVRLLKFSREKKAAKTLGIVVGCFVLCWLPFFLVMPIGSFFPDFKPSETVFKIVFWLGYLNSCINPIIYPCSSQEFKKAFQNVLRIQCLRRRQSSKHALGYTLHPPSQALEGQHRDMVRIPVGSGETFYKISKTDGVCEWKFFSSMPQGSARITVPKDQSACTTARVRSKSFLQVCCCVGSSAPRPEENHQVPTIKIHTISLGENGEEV
The experiment in a line: cell-based. As to conditions: phenylephrine-induced contraction; Schild plot. From the text: Functional assays indicative of pharmacologically defined α-1 adrenoreceptors were used to further characterize compounds. Inhibition of phenylephrine (PE)-induced contraction of canine prostate smooth muscle can be correlated with α-1A adrenoreceptor activation. […] For each of these models, agonist dose response curves were repeated against increasing concentrations of test agent to derive a Schild plot [log ([…]) against log (molarity of test agent)] to determine the pA2.
As to “3-[4-((3aR,9bR)-cis-9-Methoxy-1,2,3,3a,4,9b-hexahydro-[1]-benzopyrano[3,4-c]pyrrol-2-yl]butyl]-7-methoxy-pyrido[3',2':4,5]thieno[3,2-d]pyrimidine-2,4(1H,3H)-dione hydrochloride [Example 33]”, the “In Vitro Characterization (pA2) Rat Vas” value amounted to 9.02.

The experiment is the same for the next values; noted with them: phenylephrine-induced contraction; Schild plot; read-out: In Vitro Characterization (pA2) Rat Vas (converted).
For the compound `O=c1[nH]c2c(sc3cccnc32)c(=O)n1CCCCN1C[C@@H]2COc3ccccc3[C@@H]2C1` (racemic) [Example 70, 3-[4-((±)-cis-1,2,3,3a,4,9b-hexahydro-[1]-benzopyrano[3,4-c]pyrrol-2-yl)butyl]-pyrido[2',3':4,5]thieno[3,2-d]pyrimidine-2,4(1H,3H)-dione dihydrochloride], the Kb is 6.31 nM.

The target in another experiment is T2, α-1d adrenoreceptor (Rattus norvegicus, UniProt P23944).
T2 sequence (P23944 1-561): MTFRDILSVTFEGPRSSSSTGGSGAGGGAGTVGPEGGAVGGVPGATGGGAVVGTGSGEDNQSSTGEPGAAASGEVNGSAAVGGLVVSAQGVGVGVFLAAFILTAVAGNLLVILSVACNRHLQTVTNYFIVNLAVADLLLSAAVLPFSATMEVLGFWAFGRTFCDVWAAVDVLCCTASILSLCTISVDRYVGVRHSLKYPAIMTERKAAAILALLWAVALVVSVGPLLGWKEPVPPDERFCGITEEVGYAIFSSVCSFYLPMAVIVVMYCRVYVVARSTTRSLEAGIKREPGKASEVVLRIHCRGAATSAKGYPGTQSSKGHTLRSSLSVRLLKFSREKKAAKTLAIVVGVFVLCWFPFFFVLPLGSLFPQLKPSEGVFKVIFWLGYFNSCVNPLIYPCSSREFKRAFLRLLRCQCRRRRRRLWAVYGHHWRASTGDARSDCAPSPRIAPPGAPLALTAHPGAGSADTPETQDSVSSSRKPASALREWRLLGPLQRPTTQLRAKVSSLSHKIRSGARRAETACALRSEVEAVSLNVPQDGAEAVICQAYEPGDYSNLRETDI
Briefly: biochemical. To be noted: [3H]-prazosin radioligand; cloned receptor in LTK cell membranes; read-out: Radioligand Binding (Ki, nM) 1d (Rat). The experiment is classed as binding. The gist of the method:
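Radioactivity counted by liquid scintillation after radioligand binding to membranes. Receptors: cloned α-1a, α-1b, α-1d stably expressed in LTK mouse fibroblasts (G418 selection, SV40 early promoter); rat submaxillary gland membranes for pharmacologically defined α-1A.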
What is called Ki is the equilibrium dissociation constant of an inhibitor or competing ligand from its target. For “3-[4-((3aR,9bR)-cis-9-Methoxy-1,2,3,3a,4,9b-hexahydro-[1]-benzopyrano[3,4-c]pyrrol-2-yl]butyl]-7-methoxy-pyrido[3',2':4,5]thieno[3,2-d]pyrimidine-2,4(1H,3H)-dione hydrochloride [Example 33]”, the Ki worked out at 0.701 nM.

For the compound `COc1cc2[nH]c(=O)n(CCCCN3C[C@@H]4COc5ccccc5[C@@H]4C3)c(=O)c2cc1OC` (racemic) [Example 81, 3-[4-((±1-cis-1,2,3,3a,4,9b-hexahydro-[1]-benzopyrano[3,4-c]pyrrol-2-yl)butyl]-6,7-dimethoxy-quinazoline-2,4(1H,3H)-dione hydrochloride], the Ki was 0.108 nM.

Consider `COc1cccc2c1[C@@H]1CCN(CCCCn3c(=O)[nH]c4c(sc5ncccc54)c3=O)C[C@H]1CO2` (racemic) [Example 85, 3-[4-((±)-trans-10-Methoxy-1,3,4,4a,5,10b-hexahydro-2H-[1]-benzopyrano[3,4-c]pyrido-3-yl)butyl]-pyrido[3',2':4,5]thieno[3,2-d]pyrimidine-2,4(1H,3H)-dione dihydrochloride], for which the Ki is 0.566 nM.

For `COc1cnc2sc3c(=O)n(CCCCN4CC5COc6cccc(OC)c6[C@@H]5C4)c(=O)[nH]c3c2n1.Cl` (stereo in doubt) [Example 43, 3-[4-((3aS,9bR)-trans-9-Methoxy-1,2,3,3a,4,9b-hexahydro-[1]-benzopyrano[3,4-c]pyrrol-2-yl)butyl]-8-methoxy-pyrazino[2',3':4,5]thieno[3,2-d]pyrimidine-2,4(1H,3H)-dione hydrochloride], the Ki came to 0.063 nM.

`COc1cccc2c1[C@@H]1CN(CCCCn3c(=O)[nH]c4c(sc5cccnc54)c3=O)C[C@@H]1CO2` [Example 1, 3-[4-((3aR,9bR)-cis-9-Methoxy-1,2,3,3a,4,9b-hexahydro-[1]-benzopyrano[3,4-c]pyrrol-2-yl)butyl]-pyrido[2',3':4,5]thieno[3,2-d]pyrimidine-2,4(1H,3H)-dione hydrochloride]: the Ki was 0.223 nM.

As to `COc1cccc2c1[C@H]1CN(CCCCn3c(=O)[nH]c4c(sc5cccnc54)c3=O)C[C@H]1CO2` [Example 2, 3-[4-((3aS,9bS)-cis-9-Methoxy-1,2,3,3a,4,9b-hexahydro-[1]-benzopyrano[3,4-c]pyrrol-2-yl)butyl]-pyrido[2',3':4,5]thieno[3,2-d]pyrimidine-2,4(1H,3H)-dione hydrochloride], the Ki was found to be 2.72 nM.

Consider `COc1cccc2c1[C@@H]1CN(CCCCn3c(=O)[nH]c4c(sc5cccnc54)c3=O)C[C@H]1CO2` [Example 3, 3-[4-((3aS,9bR)-trans-9-Methoxy-1,2,3,3a,4,9b-hexahydro-[1]-benzopyrano[3,4-c]pyrrol-2-yl)butyl]-pyrido[2',3':4,5]thieno[3,2-d]pyrimidine-2,4(1H,3H)-dione hydrochloride], for which the Ki was 0.041 nM.

For `COc1cccc2c1[C@@H]1CN(CCCCn3c(=O)[nH]c4c(sc5ccnc(Cl)c54)c3=O)C[C@@H]1CO2` [Example 48, 3-[4-((3aR,9bR)-cis-9-Methoxy-1,2,3,3a,4,9b-hexahydro-[1]-benzopyrano[3,4-c]pyrrol-2-yl)butyl]-9-chloro-pyrido[3',4';4,5]thieno[3,2-d]pyrimidine-2,4(1H,3H)-dione hydrochloride], the Ki is 0.467 nM.

As for `COc1cccc2c1[C@@H]1CN(CCCCn3c(=O)[nH]c4c(sc5ccnc(OC)c54)c3=O)C[C@H]1CO2` [Example 49, 3-[4-((3aS,9bR)-trans-9-Methoxy-1,2,3,3a,4,9b-hexahydro-[1]-benzopyrano[3,4-c]pyrrol-2-yl)butyl]-9-methoxy-pyrido[3',4':4,5]thieno[3,2-d]pyrimidine-2,4(1H,3H)-dione fumarate], the Ki was 0.019 nM.

On to `COc1cccc2c1[C@@H]1CN(CCCCn3c(=O)[nH]c4c(sc5c(Cl)nccc54)c3=O)C[C@H]1CO2` [Example 54, 3-[4-((3aS,9bR)-trans-9-Methoxy-1,2,3,3a,4,9b-hexahydro-[1]-benzopyrano[3,4-c]pyrrol-2-yl)butyl]-6-chloro-pyrido[4',3':4,5]thieno[3,2-d]pyrimidine-2,4(1H,3H)-dione], for which the Ki worked out at 0.173 nM.

Regarding `COc1cccc2c1[C@@H]1CCN(CCCCn3c(=O)[nH]c4c(sc5cccnc54)c3=O)C[C@H]1CO2` [Example 95, 3-[4-((4aS,10bR)-trans-10-Methoxy-1,3,4,4a,5,10b-hexahydro-2H-[1]-benzopyrano[3,4-c]pyrido-3-yl)butyl]-pyrido[2',3':4,5]thieno[3,2-d]pyrimidine-2.4(1H,3H)-dione dihydrochloride], the Ki is 23 nM.

Still in this experiment, the particulars now being: read-out: Radioligand Binding (Ki, nM) 1d (Rat).
For `COc1ccc2c(c1)OC[C@H]1CN(CCn3c(=O)[nH]c4c(sc5ccccc54)c3=O)C[C@@H]21.Cl` (racemic) [Example 63, 3-[2-((±)-cis-7-Methoxy-1,2,3,3a,4,9b-hexahydro-[1]-benzopyrano[3,4-c]pyrrol-2-yl)ethyl]-[1]benzthieno[3,2-d]pyrimidine-2,4(1H,3H)-dione hydrochloride], the Ki is 70.1 nM.

As for `COc1ccc2c(c1)OC[C@H]1CN(CCCn3c(=O)[nH]c4c(sc5ccccc54)c3=O)C[C@@H]21.Cl` (racemic) [Example 64, 3-[3-((±)-cis-7-Methoxy-1,2,3,3a,4,9b-hexahydro-[1]-benzopyrano[3,4-c]pyrrol-2-yl)propyl]-[1]benzthieno[3,2-d]pyrimidine-2,4(1H,3H)-dione hydrochloride], the Ki was 10.4 nM.

As for `COc1cccc2c1[C@@H]1CN(CCn3c(=O)[nH]c4c(sc5ccccc54)c3=O)C[C@@H]1CO2.Cl` (racemic) [Example 65, 3-[2-((±)-cis-9-Methoxy-1,2,3,3a,4,9b-hexahydro-[1]-benzopyrano[3,4-c]pyrrol-2-yl)ethyl]-[1]benzthieno[3,2-d]pyrimidine-2,4(1H,3H)-dione hydrochloride], the Ki turned out to be 25 nM.

Consider `COc1cccc2c1[C@@H]1CN(CCCn3c(=O)[nH]c4c(sc5ccccc54)c3=O)C[C@@H]1CO2.Cl` (racemic) [Example 66, 3-[3-((±)-cis-9-Methoxy-1,2,3,3a,4,9b-hexahydro-[1]-benzopyrano[3,4-c]pyrrol-2-yl)propyl]-[1]benzthieno[3,2-d]pyrimidine-2,4(1H,3H)-dione hydrochloride], for which the Ki was determined as 87.7 nM.

For `COc1cccc2c1OC[C@H]1CN(CCn3c(=O)[nH]c4c(sc5ccccc54)c3=O)C[C@@H]21.Cl` (racemic) [Example 67, 3-[2-((±)-cis-6-Methoxy-1,2,3,3a,4,9b-hexahydro-[1]-benzopyrano[3,4-c]pyrrol-2-yl)ethyl]-[1]benzthieno[3,2-d]pyrimidine-2,4(1H,3H)-dione hydrochloride], the Ki was found to be 65 nM.

For the compound `COc1cccc2c1OC[C@H]1CN(CCCn3c(=O)[nH]c4c(sc5ccccc54)c3=O)C[C@@H]21.Cl` (racemic) [Example 68, 3-[3-((±)-cis-6-Methoxy-1,2,3,3a,4,9b-hexahydro-[1]-benzopyrano[3,4-c]pyrrol-2-yl)propyl]-[1]benzthieno[3,2-d]pyrimidine-2,4(1H,3H)-dione hydrochloride], the Ki amounted to 42.5 nM.

Take `Cl.O=c1[nH]c2c(sc3ccccc32)c(=O)n1CCN1C[C@@H]2COc3ccccc3[C@@H]2C1` (racemic) [Example 69, 3-[2-((±)-cis-1,2,3,3a,4,9b-hexahydro-[1]-benzopyrano[3,4-c]pyrrol-2-yl)ethyl]-[1]benzthieno[3,2-d]pyrimidine-2,4(1H,3H)-dione hydrochloride]: the Ki is 1.63 nM.

With `O=c1[nH]c2c(sc3cccnc32)c(=O)n1CCCCN1C[C@@H]2COc3ccccc3[C@@H]2C1` (racemic) [Example 70, 3-[4-((±)-cis-1,2,3,3a,4,9b-hexahydro-[1]-benzopyrano[3,4-c]pyrrol-2-yl)butyl]-pyrido[2',3':4,5]thieno[3,2-d]pyrimidine-2,4(1H,3H)-dione dihydrochloride], the Ki was 0.482 nM.
